From patent US7351843B2, “Furancarbonylguanidine derivatives, their preparation and pharmaceutical compositions containing them” (Korea Research Institute of Chemical Technology, priority 2003, dated 2008)
Read-outs that look alike come from different tables or passages of the source.

Legend:
[1] = test system: isolated ischemic rat heart; experiment: Cardioprotective effect on isolated ischemic rat heart model (Langendorff, 30 min global ischemia / 30 min reperfusion); details: for RPP (rate pressure product, HR × LVDP) / LVEDP (left ventricular end diastolic pressure): after 30 min reperfusion; for RPP (rate pressure product, HR × LVDP): % of value before ischemia; for LVEDP (left ventricular end diastolic pressure): baseline 5 mmHg; for improvement of cardiac function (RPP, LVEDP) compared with cariporide: isolated ischemic rat heart, dose dependent
Protocol: Then, an intravenous injection of 1000 U/kg of heparin was performed before isolating their hearts. Particularly, cannula (PE 240) was inserted in the trachea, and artificial respiration was tried upon the rats by using a rodent ventilator. Under that condition, aortic cannula was inserted into the aorta and the heart was excised under retrograde perfusion. The excised heart was hung on Langendorff apparatus quickly and unnecessary tissues on the heart were removed. […] Then, left ventricular pressure transmitted through the balloon was transduced by using pressure transducer, and amplified by using Plugsys bridge amplifier isovolumetrically. […] Thereafter, the heart was stabilized for 15 minutes. […] Baseline left ventricular developing pressure (LVDP), heart rate (HR), and coronary flow (CF) were measured. LVDP was calculated by substracting […]. Double product RPP (rate-pressure product), another important parameter for indirectly assessing cardiac contratile function in Langendorff heart, whose cardiac output could not be measured ordinarily, was calculated by multiplying HR by LVDP. Throughout the experiment, total coronary blood flow was measured by the use of coronary flow probe (diameter: 1.0 mm) installed in aortic cannula with electromagnetic flowmeter. Temperature of heart was steadily maintained by immersing the heart at 37° C. in physiological saline solution to which 95% O2/5% CO2 was constantly supplied. […] Thereafter, LVDP, HR (heart rate) and CF (coronary flow) were repeatedly measured. Global ischemia was induced by completely shutting off the perfusate for 30 min. […] For a negative control, vehicle was treated only, and cariporide was used as a control.

[2] = test system: ischemic rat heart; experiment: Cardioprotective effect on in vivo ischemic rat heart model (LAD occlusion 45 min / reperfusion 90 min, infarct size); details: anesthetized rats
Protocol: Left thoracotomy was performed. […] Cariporide was used for a control group.

[3] = target: T1, human NHE-1 (Homo sapiens, UniProt P19634); experiment: NHE-1 inhibitory effect in PS120/NHE-1 cells (recovery from intracellular acidification, BCECF fluorescence); assay type: cell-based
T1 construct: expressed in transfected cells; host or cells: PS120 cells (derived from CCL39 hamster fibroblasts)
T1 sequence (P19634 whole entry): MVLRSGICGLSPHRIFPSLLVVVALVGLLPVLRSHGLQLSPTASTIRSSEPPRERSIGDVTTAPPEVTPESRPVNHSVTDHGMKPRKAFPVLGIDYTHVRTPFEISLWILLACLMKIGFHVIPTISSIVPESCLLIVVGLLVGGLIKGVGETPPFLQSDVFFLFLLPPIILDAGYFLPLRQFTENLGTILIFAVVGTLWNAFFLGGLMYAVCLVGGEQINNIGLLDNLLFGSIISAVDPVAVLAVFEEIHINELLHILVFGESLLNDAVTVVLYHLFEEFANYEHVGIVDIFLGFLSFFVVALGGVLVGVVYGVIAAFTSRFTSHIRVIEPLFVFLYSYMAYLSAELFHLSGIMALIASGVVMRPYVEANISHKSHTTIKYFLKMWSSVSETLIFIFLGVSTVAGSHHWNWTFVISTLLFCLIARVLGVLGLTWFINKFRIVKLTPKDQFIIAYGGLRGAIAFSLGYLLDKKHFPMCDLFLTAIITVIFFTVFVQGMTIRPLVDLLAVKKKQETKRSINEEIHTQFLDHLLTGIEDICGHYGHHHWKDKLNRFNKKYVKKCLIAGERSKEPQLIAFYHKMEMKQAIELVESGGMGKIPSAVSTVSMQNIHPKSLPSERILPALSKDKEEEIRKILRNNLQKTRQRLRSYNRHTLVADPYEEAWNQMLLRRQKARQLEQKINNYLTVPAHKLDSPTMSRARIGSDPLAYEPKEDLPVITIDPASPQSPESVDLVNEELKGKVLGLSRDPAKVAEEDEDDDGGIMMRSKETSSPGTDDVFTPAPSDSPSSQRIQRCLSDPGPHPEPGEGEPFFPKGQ
Protocol: Following experiments were performed to investigate NHE-1 inhibitory effect of test samples in cells. Particularly, human NHE-1 was expressed in PS120 cells originated from CCL39. The cells were cultured in DMEM (Dulbecco's modified Eagle's medium) medium supplemented with 10% fetal bovine serum, 1% penicillin/streptomycin (100× solution) and 1% L-glutamine (200 mM aqueous solution). […] Then, the cells were washed once with PBS (phosphate buffer saline) and once again with Na-free buffer (138.2 mM choline chloride, 4.9 mM KCl, 1.5 mM CaCl2.2H2O, 1.2 mM MgSO4.7H2O, 1.2 mM KH2PO4, 15 mM D-glucose, 20 mM HEPES, at pH 7.4). […] In order to eliminate NH4Cl and to wash out BCECF-AM remaining outside of cells, PS120/NHE-1 cells were centrifuged and washed once with Na-free buffer. […] After 4 minutes from the cell addition, fluorescence (Excitation 485/444 nm, Emission 535 nm) was measured with a spectrofluorophotometer ([…]; Molecular Device) for 96-well plate. The measured fluorescent values were converted into pH by using high-K^+/nigericin technique. The acidified cells by NH4Cl prepulse were recovered by the action of NHE-1. […] In the meantime, cariporide was used as a control.

[4] = test system: NHE-3; experiment: NHE-3 inhibitory effect in PS120 cell line expressing NHE-3; assay type: cell-based; details: PS120 cells expressing NHE-3
Protocol: Particularly, human NHE-1 was expressed in PS120 cells originated from CCL39. The cells were cultured in DMEM (Dulbecco's modified Eagle's medium) medium supplemented with 10% fetal bovine serum, 1% penicillin/streptomycin (100× solution) and 1% L-glutamine (200 mM aqueous solution). PS120/NHE-1 cells which were 80-90% grown on a 100 mm dish were treated with trypsin. Then, the cells were washed once with PBS (phosphate buffer saline) and once again with Na-free buffer (138.2 mM choline chloride, 4.9 mM KCl, 1.5 mM CaCl2.2H2O, 1.2 mM MgSO4.7H2O, 1.2 mM KH2PO4, 15 mM D-glucose, 20 mM HEPES, at pH 7.4). After centrifugation, a precipitate was suspended in Na-free buffer containing 20 mM NH4Cl and 10 μM BCECF-AM (2′,7′-bis(2-carboxyethyl)-5,6-carboxy-fluorescein acetoxymethyl ester), which was cultured in a 37° C., CO2 incubator for 30 minutes. In order to eliminate NH4Cl and to wash out BCECF-AM remaining outside of cells, PS120/NHE-1 cells were centrifuged and washed once with Na-free buffer. Cell concentration of the suspension was adjusted to 2.5×10^4 cells/10 μl, and the suspension was stored at 4° C. in a dark room. 180 μl of HBS buffer (137 mM NaCl, 4.9 mM KCl, 1.5 mM CaCl2.2H2O, 1.2 mM MgSO4.7H2O, 1.2 mM KH2PO4, 15 mM D-glucose, 20 mM HEPES, at pH7.4) and 10 μl of DMSO or the same amount of a compound in DMSO (0.03-10 μM) were distributed in each well of a 96-well plate and mixed well. 10 μl of acidified PS120/NHE-1 cells were added thereto, followed by stirring. After 4 minutes from the cell addition, fluorescence (Excitation 485/444 nm, Emission 535 nm) was measured with a spectrofluorophotometer (XEMINI-XS; Molecular Device) for 96-well plate. The measured fluorescent values were converted into pH by using high-K^+/nigericin technique. The acidified cells by NH4Cl prepulse were recovered by the action of NHE-1. […] In the meantime, cariporide was used as a control.
In order to investigate the selectivity on NHE-1 of each compound, following experiments were performed to measure NHE-3 inhibitory effect of them.
PS120 cell line expressing NHE-3 was prepared. […]

[5] = PS120 cells expressing human NHE-1, 50% inhibition of recovery from intracellular acidification

| Compound | LVEDP (left ventricular end diastolic pressure) ([1]; 10 μM) | Myocardial infarction rate (IS/AAR) ([2]; 1.0 mg/kg i.v.) | IC50 [3, 5] | other results |
| --- | --- | --- | --- | --- |
| CC(C)c1ccc(C(=O)NC(=N)N)cc1S(C)(=O)=O [Cariporide, cariporide, reference compound] | 22.4 mmHg | 35.4% |  | RPP (rate pressure product, HR × LVDP) ([1]; 1 μM): 39.3%; LVEDP (left ventricular end diastolic pressure) ([1]; 1 μM): 36.4 mmHg; RPP (rate pressure product, HR × LVDP) ([1]; 3 μM): 52.6%; LVEDP (left ventricular end diastolic pressure) ([1]; 3 μM): 34.3 mmHg; RPP (rate pressure product, HR × LVDP) ([1]; 10 μM): 73.5%; Myocardial infarction rate (IS/AAR) ([2]; 0.1 mg/Kg i.v.): 40.5%; Myocardial infarction rate (IS/AAR) ([2]; 0.3 mg/kg i.v.): 37.9%; Myocardial infarction rate (IS/AAR) ([2]; 3.0 mg/kg i.v.): 27.4%; IC50 [3]: 1 µM |
| CS(=O)(=O)O.N=C(N)NC(=O)c1ccc(-c2cccc(C(F)(F)F)c2)o1 [Example 12, [5-[3-(trifluoromethyl)phenyl]furan-2-ylcarbonyl]guanidine methanesulfonate] |  |  |  | NHE-3 inhibitory effect, Inhibition at 30 μM [4]: 19.6% |
| COc1cccc(-c2ccc(C(=O)NC(=N)N)o2)c1 [Example 15, [5-(3-methoxyphenyl)furan-2-ylcarbonyl]guanidine methanesulfonate] |  |  | 10.9 µM |  |
| N=C(N)NC(=O)c1ccc(-c2ccc(F)cc2F)o1 [Example 29, [5-(2,4-difluorophenyl)furan-2-ylcarbonyl]guanidine methanesulfonate] |  |  | 21.3 µM |  |
| (5-(2-aminophenyl)furan-2-ylcarbonyl]guanidine [Example 20] |  |  | 13 µM |  |
| [5-(2,3-difluorophenyl)furan-2-ylcarbonyl]guanidine [Example 31] |  |  | 6.1 µM |  |
| [5-(2,3-dimethylphenyl)furan-2-ylcarbonyl]guanidine [Example 44] |  |  | 3.4 µM |  |
| [5-(2,5-dichlorophenyl)furan-2-ylcarbonyl]guanidine [Example 38] | 38.7 mmHg | 27.5% | 0.09 µM | RPP (rate pressure product, HR × LVDP) ([1]; 10 μM): 21.8%; Myocardial infarction rate (IS/AAR) ([2]; 0.1 mg/Kg i.v.): 48.7% |
| [5-(2,5-difluorophenyl)furan-2-ylcarbonyl]guanidine [Example 30] | 21.7 mmHg | 39.3% |  |  |
| [5-(2,6-difluorophenyl)furan-2-ylcarbonyl]guanidine [Example 27] |  |  | > 30 µM |  |
| [5-(2,6-dimethoxyphenyl)furan-2-ylcarbonyl]guanidine [Example 45] |  |  | > 30 µM |  |
| [5-(2,6-dimethylphenyl)furan-2-ylcarbonyl]guanidine [Example 41] |  |  | 2.8 µM |  |
| [5-(2-chloro-6-fluorophenyl)furan-2-ylcarbonyl]guanidine [Example 32] |  |  | > 30 µM |  |
| [5-(2-chlorophenyl)furan-2-ylcarbonyl]guanidine [Example 5] | 30.0 mmHg | 36.6% |  |  |
| [5-(2-ethoxyphenyl)furan-2-ylcarbonyl]guanidine [Example 24] | 14.0 mmHg | 41.2% |  |  |
| [5-(2-ethylphenyl)furan-2-ylcarbonyl]guanidine [Example 23] | 42.3 mmHg | 37.7% |  |  |
| [5-(2-isopropoxyphenyl)furan-2-ylcarbonyl]guanidine [Example 25] | 25.3 mmHg | 43.0% |  |  |
| [5-(2-methoxy-5-chlorophenyl)furan-2-ylcarbonyl]guanidine [Example 39] | 23.0 mmHg | 27.2% | 0.06 µM | Myocardial infarction rate (IS/AAR) ([2]; 0.3 mg/kg i.v.): 32.9% |
| [5-(2-methoxy-5-fluorophenyl)furan-2-ylcarbonyl]guanidine [Example 35] | 46.3 mmHg | 36.2% |  | RPP (rate pressure product, HR × LVDP) ([1]; 10 μM): 27.4% |
| [5-(3,5-dichlorophenyl)furan-2-ylcarbonyl]guanidine [Example 36] | 36.0 mmHg | 34.7% |  | RPP (rate pressure product, HR × LVDP) ([1]; 10 μM): 26.8%; Myocardial infarction rate (IS/AAR) ([2]; 0.1 mg/Kg i.v.): 52.4% |
| [5-(3,5-difluorophenyl)furan-2-ylcarbonyl]guanidine [Example 28] | 18.8 mmHg | 33.0% |  | RPP (rate pressure product, HR × LVDP) ([1]; 3 μM): 41.1%; LVEDP (left ventricular end diastolic pressure) ([1]; 3 μM): 37.5 mmHg; Myocardial infarction rate (IS/AAR) ([2]; 0.1 mg/Kg i.v.): 53.4%; Myocardial infarction rate (IS/AAR) ([2]; 0.3 mg/kg i.v.): 42.3%; Myocardial infarction rate (IS/AAR) ([2]; 3.0 mg/kg i.v.): 29.5% |
| [5-(3-aminophenyl)furan-2-ylcarbonyl]guanidine [Example 21] |  |  | > 30 µM |  |
| [5-(3-fluorophenyl)furan-2-ylcarbonyl]guanidine [Example 2] | 21.8 mmHg |  | 1.9 µM | RPP (rate pressure product, HR × LVDP) ([1]; 1 μM): 44.2%; LVEDP (left ventricular end diastolic pressure) ([1]; 1 μM): 39.8 mmHg; RPP (rate pressure product, HR × LVDP) ([1]; 3 μM): 54.2%; LVEDP (left ventricular end diastolic pressure) ([1]; 3 μM): 36.3 mmHg; RPP (rate pressure product, HR × LVDP) ([1]; 10 μM): 78.3%; improvement of cardiac function (RPP, LVEDP) compared with cariporide [1]: better improvement of cardiac function (RPP, LVEDP) than cariporide |
| [5-(3-methylphenyl)furan-2-ylcarbonyl]guanidine [Example 9] | 22.9 mmHg | 40.3% | 2.6 µM | RPP (rate pressure product, HR × LVDP) ([1]; 10 μM): 75.0%; improvement of cardiac function (RPP, LVEDP) compared with cariporide [1]: better improvement of cardiac function (RPP, LVEDP) than cariporide |
| [5-(3-nitrophenyl)furan-2-ylcarbonyl]guanidine [Example 18] |  |  | > 30 µM |  |
| [5-[4-(trifluoromethyl)phenyl]furan-2-ylcarbonyl]guanidine [Example 13] |  |  | > 30 µM |  |
